Data from ChEMBL document CHEMBL1124752, “Cyclobut-A and cyclobut-G: broad-spectrum antiviral agents with potential utility for the therapy of AIDS” (J Med Chem, 1990).
Converted amounts (≈) assume the structure as drawn.

Key:
Human alphaherpesvirus 2 [1] = assay: Number of survivors per number of HSV-2 infected mice treated with 31.2 mg/kg/day; 9/10; format: functional
Murid betaherpesvirus 1 [2] = assay: Number of survivors per number of systemic MCMV infected mice treated with 100 mg/kg/day; 15/15; format: functional
Murid betaherpesvirus 1 [3] = assay: Number of survivors per number of systemic MCMV infected mice treated with 33.4 mg/kg/day; 14/15; format: functional
Murid betaherpesvirus 1 [4] = assay: Tested for mean day to death of nonsurvivors against systemic MCMV infection in mice at 11.2 mg/kg/day; format: functional
[5] = tested on: Human immunodeficiency virus 1; assay: Tested for the determination of percentage protection at 50 uM against HIV-1 in ATH8 cells; format: functional, ATH-8
Human alphaherpesvirus 2 [6] = assay: In vitro antiviral activity tested against herpesvirus, HSV-2, X-79 strain by plaque reduction assay in human foreskin fibroblasts; format: functional
Human alphaherpesvirus 2 [7] = assay: In vitro antiviral activity tested against herpesvirus, HSV-2, HEET strain by plaque reduction assay in human foreskin fibroblasts; format: functional
Human alphaherpesvirus 1 [8] = assay: Number of survivors per number of HSV-1 infected mice treated with 18.7 mg/kg/day; 10/10; format: functional
Murid betaherpesvirus 1 [9] = assay: Number of survivors per number of systemic MCMV infected mice treated with 11.2 mg/kg/day; 14/15; format: functional
[10] = tested on: Human immunodeficiency virus 1; assay: Tested for the determination of percentage protection at 10 uM against HIV-1 in ATH8 cells; format: functional, ATH-8
Human alphaherpesvirus 1 [11] = assay: In vitro antiviral activity against herpesvirus, HSV-1, E-377 strain by plaque reduction assay in human foreskin fibroblasts; format: functional
[12] = tested on: Human immunodeficiency virus 1; assay: Tested for the determination of percentage toxicity at 10 uM against HIV-1 in ATH8 cells; format: organism-based; conditions: human immunodeficiency virus 1, ath-8, 10 µM
Murid betaherpesvirus 1 [13] = assay: Tested for mean day to death of nonsurvivors against systemic MCMV infection in mice at 3.8 mg/kg/day; format: functional
[14] = tested on: Human immunodeficiency virus 1; assay: Tested for the determination of percentage protection at 1 uM against HIV-1 in ATH8 cells; format: functional, ATH-8
Murid betaherpesvirus 1 [15] = assay: Number of survivors per number of systemic MCMV infected mice treated with 3.8 mg/kg/day; 4/15; format: functional
Human alphaherpesvirus 1 [16] = assay: Tested for mean day to death of nonsurvivors against HSV-1 infection in mice at 4.7 mg/kg/day; format: functional
Human alphaherpesvirus 1 [17] = assay: Number of survivors per number of HSV-1 infected mice treated with 75 mg/kg/day; 10/10; format: functional
Human alphaherpesvirus 3 [18] = assay: In vitro antiviral activity tested against herpesvirus, VZV, OKA strain by plaque reduction assay in human foreskin fibroblasts; format: functional
[19] = tested on: Human immunodeficiency virus 1; assay: Tested for the determination of percentage protection at 100 uM against HIV-1 in ATH8 cells; format: functional, ATH-8
Human betaherpesvirus 5 [20] = assay: In vitro antiviral activity tested against herpesvirus, HCMV, CH strain by plaque reduction assay in human foreskin fibroblasts; format: functional
Human alphaherpesvirus 1 [21] = assay: Number of survivors per number of HSV-1 infected mice treated with 4.7 mg/kg/day; 6/10; format: functional
Human alphaherpesvirus 2 [22] = assay: Tested for mean day to death of nonsurvivors against HSV-2 encephalitis in mice at 7.8 mg/kg/day; format: functional
Human alphaherpesvirus 2 [23] = assay: Tested for mean day to death of nonsurvivors against HSV-2 encephalitis in mice at 31.2 mg/kg/day; format: functional
Human alphaherpesvirus 2 [24] = assay: Number of survivors per number of HSV-2 infected mice treated with 7.8 mg/kg/day; 5/10; format: functional
Murid betaherpesvirus 1 [25] = assay: In vitro antiviral activity tested against herpesvirus, MCMV, Smith strain by plaque reduction assay in mouse embryo fibroblasts; format: functional
[26] = tested on: Human immunodeficiency virus 1; assay: Tested for the determination of percentage toxicity at 50 uM against HIV-1 in ATH8 cells; format: organism-based; conditions: human immunodeficiency virus 1, ath-8, 50 µM
Human betaherpesvirus 5 [27] = assay: In vitro antiviral activity tested against herpesvirus, HCMV, EC strain by plaque reduction assay in human foreskin fibroblasts; format: functional
Human alphaherpesvirus 2 [28] = assay: Number of survivors per number of HSV-2 infected mice treated with 125 mg/kg/day; 10/10; format: functional
Human alphaherpesvirus 3 [29] = assay: In vitro antiviral activity tested against herpesvirus, VZV, Ellen strain by plaque reduction assay in human foreskin fibroblasts; format: functional
Homo sapiens = organism: Homo sapiens; assay: The drug concentration was determined to reduce proliferation of human foreskin fibroblasts to 50% of untreated controls in proliferation assay; format: functional; conditions: read-out: ID50 (the source's name)
Human betaherpesvirus 5 [30] = assay: In vitro antiviral activity tested against herpesvirus, HCMV, LA strain by plaque reduction assay in human foreskin fibroblasts; format: functional
Human betaherpesvirus 5 [31] = assay: In vitro antiviral activity tested against herpesvirus, HCMV, AD169 strain by plaque reduction assay in human foreskin fibroblasts; format: functional
[32] = tested on: Human immunodeficiency virus 1; assay: Tested for the determination of percentage toxicity at 100 uM against HIV-1 in ATH8 cells; format: organism-based; conditions: human immunodeficiency virus 1, ath-8, 100 µM
Human alphaherpesvirus 2 [33] = assay: In vitro antiviral activity tested against herpesvirus, HSV-2, JEN strain by plaque reduction assay in human foreskin fibroblasts; format: functional
Human alphaherpesvirus 2 [34] = assay: In vitro activity tested against herpesvirus, HSV-2, MS strain by plaque reduction assay in human foreskin fibroblasts; format: functional
Human alphaherpesvirus 1 [35] = assay: Tested for the effective dose required to inhibit HSV-1 in infected mice; format: functional
Human betaherpesvirus 5 [36] = assay: In vitro antiviral activity tested against herpesvirus, HCMV, Davis strain by plaque reduction assay in human foreskin fibroblasts; format: functional
Human alphaherpesvirus 2 [37] = assay: Tested for the effective dose required to inhibit HSV-2 encephalitis in infected mice; format: functional
[38] = tested on: Human immunodeficiency virus 1; assay: Tested for the determination of percentage toxicity at 1 uM against HIV-1 in ATH8 cells; format: organism-based; conditions: human immunodeficiency virus 1, ath-8, 1 µM
Murid betaherpesvirus 1 [39] = assay: Tested for the effective dose required to inhibit systemic MCMV in infected mice; format: functional
Murid betaherpesvirus 1 [40] = assay: Tested for mean day to death of nonsurvivors against systemic MCMV infection in mice at 33.4 mg/kg/day; format: functional
[41] = read-out: ED50 (the source's name)
[42] = read-out: ID50 (the source's name)

## Nc1ncnc2c1ncn2[C@@H]1C[C@H](CO)[C@H]1CO
Human alphaherpesvirus 2 [1]
  Survivors / treated: 9
Murid betaherpesvirus 1 [2]
  Survivors / treated: 15
Murid betaherpesvirus 1 [3]
  Survivors / treated: 14
Murid betaherpesvirus 1 [4]
  MDD: 6
[5]
  Protection: 48%
Human alphaherpesvirus 2 [6]; [41]
  EC50: 1.8 µg/mL (≈ 7.22 µM)
Human alphaherpesvirus 2 [6]; [42]
  IC50: > 100 µg/mL
Human alphaherpesvirus 2 [7]; [41]
  EC50: 2.2 µg/mL (≈ 8.83 µM)
Human alphaherpesvirus 2 [7]; [42]
  IC50: > 100 µg/mL
Human alphaherpesvirus 1 [8]
  Survivors / treated: 10
Murid betaherpesvirus 1 [9]
  Survivors / treated: 14
[10]
  Protection: 63%
Human alphaherpesvirus 1 [11]; [41]
  EC50: 1 µg/mL (≈ 4.01 µM)
Human alphaherpesvirus 1 [11]; [42]
  IC50: > 100 µg/mL
[12]
  Cytotoxity: 32%
Murid betaherpesvirus 1 [13]
  MDD: 5.3
[14]
  Protection: 47%
Murid betaherpesvirus 1 [15]
  Survivors / treated: 4
Human alphaherpesvirus 1 [16]
  MDD: 7.5
Human alphaherpesvirus 1 [17]
  Survivors / treated: 10
Human alphaherpesvirus 3 [18]; [41]
  EC50: 2 µg/mL (≈ 8.02 µM)
Human alphaherpesvirus 3 [18]; [42]
  IC50: > 100 µg/mL
[19]
  Protection: 52%
Human betaherpesvirus 5 [20]; [41]
  EC50: 0.9 µg/mL (≈ 3.61 µM)
Human betaherpesvirus 5 [20]; [42]
  IC50: > 100 µg/mL
Human alphaherpesvirus 1 [21]
  Survivors / treated: 6
Human alphaherpesvirus 2 [22]
  MDD: 10.8
Human alphaherpesvirus 2 [23]
  MDD: 10
Human alphaherpesvirus 2 [24]
  Survivors / treated: 5
Murid betaherpesvirus 1 [25]; [41]
  EC50: 0.05 µg/mL (≈ 0.201 µM)
Murid betaherpesvirus 1 [25]; [42]
  IC50: > 100 µg/mL
[26]
  Cytotoxity: 42%
Human betaherpesvirus 5 [27]; [41]
  EC50: 2.2 µg/mL (≈ 8.83 µM)
Human betaherpesvirus 5 [27]; [42]
  IC50: > 100 µg/mL
Human alphaherpesvirus 2 [28]
  Survivors / treated: 10
Human alphaherpesvirus 3 [29]; [41]
  EC50: 2.1 µg/mL (≈ 8.42 µM)
Human alphaherpesvirus 3 [29]; [42]
  IC50: > 100 µg/mL
Homo sapiens
  IC50: 7.7 µg/mL (≈ 30.9 µM)
Human betaherpesvirus 5 [30]; [41]
  EC50: 1 µg/mL (≈ 4.01 µM)
Human betaherpesvirus 5 [30]; [42]
  IC50: > 100 µg/mL
Human betaherpesvirus 5 [31]; [41]
  EC50: 3.7 µg/mL (≈ 14.8 µM)
Human betaherpesvirus 5 [31]; [42]
  IC50: > 100 µg/mL
[32]
  Cytotoxity: 44%
Human alphaherpesvirus 2 [33]; [41]
  EC50: 2.3 µg/mL (≈ 9.23 µM)
Human alphaherpesvirus 2 [33]; [42]
  IC50: > 100 µg/mL
Human alphaherpesvirus 2 [34]; [41]
  EC50: 1.6 µg/mL (≈ 6.42 µM)
Human alphaherpesvirus 2 [34]; [42]
  IC50: > 100 µg/mL
Human alphaherpesvirus 1 [35]
  ED50: < 4.7 mg/kg/day
Human betaherpesvirus 5 [36]; [41]
  EC50: 0.9 µg/mL (≈ 3.61 µM)
Human betaherpesvirus 5 [36]; [42]
  IC50: > 100 µg/mL
Human alphaherpesvirus 2 [37]
  ED50: 9.7 mg/kg/day
[38]
  Cytotoxity: 11%
Murid betaherpesvirus 1 [39]
  ED50: 2.7 mg/kg/day
Murid betaherpesvirus 1 [40]
  MDD: 5
